Where two headings read alike, the source gives them in different places.
Tests used:
[1] = system: SNL rats, thermal hyperalgesia / anti nociception; experiment: Spinal nerve ligation (SNL) model of neuropathic pain, paw-withdrawal latency to thermal stimulus (Hargreaves); format: in vivo; settings: rat SNL, 30 mg/kg orally in propylene glycol
Source text: (§1) Spinal nerve ligation (SNL) injury was induced using the procedure of Kim and Chung, (Kim, S. H., et al., Pain (1992) 50:355-363) in male Sprague-Dawley rats (Harlan; Indianapolis, Ind.) weighing 200 to 300 grams. Anesthesia was induced with 2% halothane in O2 at 2 L/min and maintained with 0.5% halothane in O2. After surgical preparation of the rats and exposure of the dorsal vertebral column from L4 to S2, the L5 and L6 spinal nerves were tightly ligated distal to the dorsal root ganglion using 4-0 silk suture. The incision was closed, and the animals were allowed to recover for 5 days. […] Sham control rats underwent the same operation and handling as the experimental animals, but without SNL.
The method of Hargreaves and colleagues (Hargreaves, K., et al., Pain (1988) 32:77-88) was employed to assess paw-withdrawal latency to a thermal nociceptive stimulus. Rats were allowed to acclimate within a Plexiglas enclosure on a clear glass plate maintained at 30° C. A radiant heat source (i.e., high intensity projector lamp) was activated with a timer and focused onto the plantar surface of the affected paw of nerve-injured or carrageenan-injected rats. Paw-withdrawal latency was determined by a photocell that halted both lamp and timer when the paw was withdrawn. The latency to withdrawal of the paw from the radiant heat source was determined prior to carrageenan or […], 3 hours after carrageenan or 7 days after L5/L6 SNL but before drug and after drug administration. A maximal cut-off of 40 seconds was employed to prevent tissue damage. Paw withdrawal latencies were thus determined to the nearest 0.1 second. Reversal of thermal hyperalgesia was indicated by a return of the paw withdrawal latencies to the pre-treatment baseline latencies (i.e., 21 seconds). Anti nociception was indicated by a significant (p<0.05) increase in paw withdrawal latency above this baseline. Data were converted to % anti hyperalgesia or % anti nociception by the formula: (100×(test latency−baseline latency)/(cut-off−baseline latency) where cut-off was 21 seconds for determining anti hyperalgesia and 40 seconds for determining anti nociception.
(§2) Compound 1 was administered orally in propylene glycol solution at a dose of 30 mg/kg. The percent activity was calculated for block of tactile allodynia, thermal hyperalgesia and analgesia.

[2] = system: rat formalin model; experiment: Formalin-induced pain model (paw flinches); format: in vivo; settings: 30 mg/kg IP, 10 min before formalin, ±SEM, saline control=100%
Experimental: The effects of intrathecally delivered compounds of the invention on the rat formalin model were measured. The compounds were reconstituted to stock solutions of approximately 10 mg/ml in propylene glycol. Eight Holtzman male rats of 275-375 g size were randomly selected per test article.
The following study groups were used, with test article, vehicle control (propylene glycol) and saline delivered intraperitoneally (IP):
Prior to initiation of drug delivery baseline behavioral and testing data were taken.
On the morning of testing, a small metal band (0.5 g) was loosely placed around the right hind paw. The rat was placed in a cylindrical Plexiglas chamber for adaptation a minimum of 30 minutes. Test Article or Vehicle Control Article was administered 10 minutes prior to formalin injection (50 μl of 5% formalin) into the dorsal surface of the right hind paw of the rat. The animal was then placed into the chamber of the automated formalin apparatus where movement of the formalin injected paw was monitored and the number of paw flinches tallied by minute over the next 60 minutes (Malmberg, A. B., et al., Anesthesiology (1993) 79:270-281).
Results are presented as Maximum Possible Effect ±SEM, where saline control=100%.

[3] = target: T1, human DiG T-type channels (Homo sapiens, UniProt O43497); experiment: T-type calcium channel block, whole-cell patch clamp in HEK cell lines; format: cell-based
T1 construct: expressed in transfected cells
Experimental: Standard patch-clamp techniques were employed to identify blockers of T-type currents. Briefly, previously described HEK cell lines stably expressing human DiG T-type channels were used for all the recordings (passage #: 4-20, 37° C., 5% CO2). To obtain T-type currents, plastic dishes containing semi-confluent cells were positioned on the stage of a ZEISS AXIOVERT S100 microscope after replacing the culture medium with external solution (see below). Whole-cell patches were obtained using pipettes (borosilicate glass with filament, O.D.: 1.5 mm, I.D.: 0.86 mm, 10 cm length), fabricated on a SUTTER P-97 puller with resistance values of ˜5 MΩ (see below for internal solution).
In the non-inactivating protocol, the holding potential is set at −110 mV and with a pre-pulse at −100 mV for 1 second prior to the test pulse at −40 mV for 50 ms. […]
Test compounds were dissolved in external solution, 0.1-0.01% DMSO. After ˜10 min rest, they were applied by gravity close to the cell using a WPI microfil tubing. The “non-inactivated” pre-pulse was used to examine the resting block of a compound. The “inactivated” protocol was employed to study voltage-dependent block. However, the initial data shown below were mainly obtained using the non-inactivated protocol only. IC50 values are shown for various compounds of the invention in Table 5.

[4] = system: SNL rats, tactile allodynia; experiment: Spinal nerve ligation (SNL) model of neuropathic pain, tactile allodynia (von Frey filaments); format: in vivo; settings: rat SNL, 30 mg/kg orally in propylene glycol
Source text: as §1
The assessment of tactile allodynia consisted of measuring the withdrawal threshold of the paw ipsilateral to the site of nerve injury in response to probing with a series of calibrated von Frey filaments. Each filament was applied perpendicularly to the plantar surface of the ligated paw of rats kept in suspended wire-mesh cages. Measurements were taken before and after administration of drug or vehicle. Withdrawal threshold was determined by sequentially increasing and decreasing the stimulus strength (“up and down” method), analyzed using a Dixon non-parametric test (Chaplan, S. R., et al., J Pharmacol Exp Ther (1994) 269:1117-1123), and expressed as the mean withdrawal threshold.
as §2

[5] = target: T2, rat brain N-type calcium channel subunits (α1B+α2δ+β1b cDNA subunits) (Rattus norvegicus, UniProt Q02294); experiment: N-type calcium channel block, whole cell patch clamp in HEK 293 cells; format: cell-based; settings: holding potential −80 mV to +10 mV
T2 construct: expressed in transfected cells
Experimental: N-type calcium channel blocking activity was assayed in human embryonic kidney cells, HEK 293, stably transfected with the rat brain N-type calcium channel subunits (α1B+α2δ+β1b cDNA subunits). Alternatively, N-type calcium channels (α1B+α2δ+β1b cDNA subunits), L-type channels (α1C+α2δ+β1b cDNA subunits) and P/Q-type channels (α1A+α2δ+β1b cDNA subunits) were transiently expressed in HEK 293 cells. Briefly, cells were cultured in Dulbecco's modified eagle medium (DMEM) supplemented with 10% fetal bovine serum, 200 U/ml penicillin and 0.2 mg/ml streptomycin at 37° C. with 5% CO2. At 85% confluency cells were split with 0.25% trypsin/1 mM EDTA and plated at 10% confluency on glass coverslips. At 12 hours the medium was replaced and the cells transiently transfected using a standard calcium phosphate protocol and the appropriate calcium channel cDNA's. Fresh DMEM was supplied and the cells transferred to 28° C./5% CO2. Cells were incubated for 1 to 2 days prior to whole cell recording.
Whole cell patch clamp experiments were performed using an Axopatch 200B amplifier (Axon Instruments, Burlingame, Calif.) linked to a personal computer equipped with pCLAMP software. The external and internal recording solutions contained, respectively, 5 mM BaCl2, 10 mM MgCl2, 10 mM HEPES, 40 mM TEAC1, 10 mM glucose, 87.5 mM CsCl (pH 7.2) and 108 mM CsMS, 4 mM MgCl2, 9 mM EGTA, 9 mM HEPES (pH 7.2). Currents were typically elicited from a holding potential of −80 mV to +10 mV using Clampex software (Axon Instruments). Typically, currents were first elicited with low frequency stimulation (0.067 Hz) and allowed to stabilize prior to application of the compounds. The compounds were then applied during the low frequency pulse trains for two to three minutes to assess tonic block, and subsequently the pulse frequency was increased to 0.2 Hz to assess frequency dependent block. Data were analyzed using Clampfit (Axon Instruments) and SigmaPlot 4.0 (Jandel Scientific).

[6] = system: T-type over L-type channels; settings: literature (Heady et al. 2001); cited from earlier work

T1 sequence (O43497 whole entry): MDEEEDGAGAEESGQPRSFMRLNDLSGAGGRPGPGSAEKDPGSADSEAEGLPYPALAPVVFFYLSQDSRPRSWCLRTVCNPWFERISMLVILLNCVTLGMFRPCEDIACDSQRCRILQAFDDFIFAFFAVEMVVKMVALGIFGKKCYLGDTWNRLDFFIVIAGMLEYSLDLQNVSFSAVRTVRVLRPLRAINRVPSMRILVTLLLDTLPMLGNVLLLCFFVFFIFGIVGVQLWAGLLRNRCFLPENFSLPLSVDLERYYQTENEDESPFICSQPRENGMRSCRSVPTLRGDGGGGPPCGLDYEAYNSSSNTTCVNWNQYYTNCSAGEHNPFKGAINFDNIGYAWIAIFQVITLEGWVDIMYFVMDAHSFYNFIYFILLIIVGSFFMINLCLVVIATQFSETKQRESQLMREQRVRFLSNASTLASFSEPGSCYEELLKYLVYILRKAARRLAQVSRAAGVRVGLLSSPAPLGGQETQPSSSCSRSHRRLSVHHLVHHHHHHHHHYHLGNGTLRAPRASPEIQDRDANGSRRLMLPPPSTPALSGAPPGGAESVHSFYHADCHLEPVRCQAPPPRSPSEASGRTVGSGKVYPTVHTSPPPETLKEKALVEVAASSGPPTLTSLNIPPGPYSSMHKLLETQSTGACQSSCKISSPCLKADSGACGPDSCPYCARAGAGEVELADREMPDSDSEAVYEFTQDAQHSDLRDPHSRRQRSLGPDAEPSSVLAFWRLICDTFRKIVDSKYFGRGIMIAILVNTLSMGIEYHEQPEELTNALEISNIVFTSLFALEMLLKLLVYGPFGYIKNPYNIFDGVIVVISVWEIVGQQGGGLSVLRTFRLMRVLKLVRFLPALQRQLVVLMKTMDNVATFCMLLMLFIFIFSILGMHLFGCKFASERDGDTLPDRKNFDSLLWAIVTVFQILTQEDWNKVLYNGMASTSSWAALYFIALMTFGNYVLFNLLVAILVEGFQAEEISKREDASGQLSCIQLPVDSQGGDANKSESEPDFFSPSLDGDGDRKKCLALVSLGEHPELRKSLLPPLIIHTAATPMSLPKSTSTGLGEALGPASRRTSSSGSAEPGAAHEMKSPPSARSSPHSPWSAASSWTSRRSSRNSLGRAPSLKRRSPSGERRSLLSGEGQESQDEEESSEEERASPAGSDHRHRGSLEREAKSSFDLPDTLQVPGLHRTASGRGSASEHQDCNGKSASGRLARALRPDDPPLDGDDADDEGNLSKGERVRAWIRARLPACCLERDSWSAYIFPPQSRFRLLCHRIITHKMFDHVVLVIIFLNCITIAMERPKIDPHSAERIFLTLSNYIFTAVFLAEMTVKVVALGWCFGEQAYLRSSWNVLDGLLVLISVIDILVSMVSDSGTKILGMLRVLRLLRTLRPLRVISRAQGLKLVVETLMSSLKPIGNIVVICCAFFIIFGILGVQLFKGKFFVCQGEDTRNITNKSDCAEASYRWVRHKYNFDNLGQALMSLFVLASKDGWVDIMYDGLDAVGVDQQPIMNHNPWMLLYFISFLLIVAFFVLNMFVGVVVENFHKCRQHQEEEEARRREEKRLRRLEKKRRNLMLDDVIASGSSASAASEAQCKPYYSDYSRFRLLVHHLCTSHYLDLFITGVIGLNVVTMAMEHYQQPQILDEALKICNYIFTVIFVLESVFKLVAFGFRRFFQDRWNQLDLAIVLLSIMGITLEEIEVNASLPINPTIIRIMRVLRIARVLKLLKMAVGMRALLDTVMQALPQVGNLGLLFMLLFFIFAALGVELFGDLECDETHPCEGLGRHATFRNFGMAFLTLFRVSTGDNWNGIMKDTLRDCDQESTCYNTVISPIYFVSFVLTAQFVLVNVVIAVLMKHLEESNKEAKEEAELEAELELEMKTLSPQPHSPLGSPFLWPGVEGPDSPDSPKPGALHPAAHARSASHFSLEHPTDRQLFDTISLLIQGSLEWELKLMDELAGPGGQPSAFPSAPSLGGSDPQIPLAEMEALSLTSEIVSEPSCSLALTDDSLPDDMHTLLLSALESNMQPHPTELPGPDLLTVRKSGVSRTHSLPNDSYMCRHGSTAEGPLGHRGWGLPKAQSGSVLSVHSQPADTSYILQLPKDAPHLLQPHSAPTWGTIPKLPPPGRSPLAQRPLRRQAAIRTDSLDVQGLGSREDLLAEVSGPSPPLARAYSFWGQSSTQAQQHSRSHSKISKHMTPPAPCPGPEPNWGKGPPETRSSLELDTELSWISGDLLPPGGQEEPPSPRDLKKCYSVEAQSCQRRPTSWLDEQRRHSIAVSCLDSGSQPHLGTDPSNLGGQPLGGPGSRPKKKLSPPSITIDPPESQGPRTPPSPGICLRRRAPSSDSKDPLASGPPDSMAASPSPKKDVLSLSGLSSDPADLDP

With `O=C(NC(c1ccccc1)c1ccccc1)N1CCN(C(c2ccccc2)c2ccccc2)CC1` [Compound 1, 4-Benzhydryl-piperazine-1-carboxylic acid benzhydryl-amide] the “Analgesia (% Activity)” value ([1]; 30 min) was 82.47 ± 10.11 % Activity, the “Thermal Hyperalgesia (% Activity)” value ([1]; 30 min) was 46.98 ± 15.09 % Activity and the “Analgesia (% Activity)” value ([1]; 60 min) was 88.95 ± 8.30 % Activity. For the same molecule, the “Thermal Hyperalgesia (% Activity)” value ([1]; 60 min) was 97.86 ± 2.14 % Activity, the “Analgesia (% Activity)” value ([1]; 90 min) was 9.02 ± 5.66 % Activity and the “Thermal Hyperalgesia (% Activity)” value ([1]; 90 min) was 49.07 ± 10.17 % Activity. The “Analgesia (% Activity)” value ([1]; 120 min) was 0.00 ± 0.00 % Activity, the “Thermal Hyperalgesia (% Activity)” value ([1]; 120 min) was 33.36 ± 10.62 % Activity and the “Phase I (% MPE)” value [2] was 58 ± 15 % MPE. The “Phase II Total (% MPE)” value [2] was 75 ± 12 % MPE, the “Phase IIA (% MPE)” value [2] was 65 ± 12 % MPE and the “Phase IIB (% MPE)” value [2] was 99 ± 15 % MPE. The IC50 ([3]; inactivation protocol, @ −80 mV, read-out: IC50 @ −80 mV) was 231 nM, the IC50 ([3]; non-inactivating protocol, pre-pulse −100 mV, test pulse −40 mV, read-out: IC50 @ −100 mV) was 583 nM and the “Tactile Allodynia (% Activity)” value ([4]; 30 min) was 35.77 ± 10.38 % Activity. For the same molecule, the “Tactile Allodynia (% Activity)” value ([4]; 60 min) was 80.89 ± 13.30 % Activity, the “Tactile Allodynia (% Activity)” value ([4]; 90 min) was 35.49 ± 9.01 % Activity and the “Tactile Allodynia (% Activity)” value ([4]; 120 min) was 19.61 ± 6.78 % Activity. For the same molecule, the “Tactile Allodynia (% Activity)” value ([4]; 150 min) was 1.98 ± 1.42 % Activity, the IC50 ([5]; low frequency stimulation 0.067 Hz (tonic block), read-out: IC50 @ 0.067 Hz) was 200 nM and the IC50 ([5]; pulse frequency 0.2 Hz (frequency dependent block), read-out: IC50 @ 0.2 Hz) was 150 nM.

In the case of `COCC(=O)O[C@]1(CCN(C)CCCc2nc3ccccc3[nH]2)CCc2cc(F)ccc2[C@@H]1C(C)C` [Mibefradil], the “selective for T-type over L-type channels” value [6] is given as 10-30 fold.

Source: patent US7649092B2, “Urea derivatives as calcium channel blockers” (Neuromed Pharmaceuticals Ltd., priority 2004, dated 2010)
